Columns and labels:
Assay type in all cases: in vivo
[1] = system: barnyardgrass (Echinochloa crus-galli); test: Test G Post-Emergence Protocol; details: Echinochloa crus-galli, post-emergence, 312 h, read-out: Barnyardgrass damage rating
Summary of the method: (§1)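 Damage was rated 13 days after treatment from 0 (none) to 100 (plant killed). Compound was applied as a spray at 15.625, 62.5 or 250 g/ha in 50:50 acetone/water containing 0.5% Tween 20, onto 8-day-old potted plants kept in a glasshouse (24/16 °C, 14 h light, 65% humidity).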

[2] = system: velvetleaf (Abutilon theophrasti); test: Test G Post-Emergence Protocol; details: Abutilon theophrasti, post-emergence, 312 h, read-out: Velvetleaf damage rating
Summary of the method: as §1

corn (Zea mays) [3] = test: Test G Post-Emergence Protocol; details: Zea mays, post-emergence, 312 h, read-out: Corn damage rating
Summary of the method: as §1

[4] = system: redroot pigweed (Amaranthus retroflexus); test: Test G Post-Emergence Protocol; details: Amaranthus retroflexus, post-emergence, 312 h, read-out: Pigweed, Redroot damage rating
Summary of the method: as §1

[5] = system: ivy-leaved morning glory (Ipomoea hederacea); test: Test G Post-Emergence Protocol; details: Ipomoea, post-emergence, 312 h, read-out: Morningglory, Ivy-leaved damage rating
Summary of the method: as §1

[6] = system: giant foxtail (Setaria faberi); test: Test G Post-Emergence Protocol; details: Setaria faberi, post-emergence, 312 h, read-out: Foxtail, Giant damage rating
Summary of the method: as §1

[7] = system: barnyardgrass (Echinochloa crus-galli); test: Test G Pre-Emergence Protocol; details: Echinochloa crus-galli, pre-emergence, 312 h, evaluated after 13 days
Summary of the method: (§2)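 Glasshouse pre-emergence test: soil-sown seeds, sprayed after 1 d at 15.625, 62.5 or 250 g/ha. Conditions 24/16° C day/night, 14 h light, 65% humidity, watering twice daily. Rating 13 d post-spray (100 = total damage).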

[8] = system: velvetleaf (Abutilon theophrasti); test: Test G Pre-Emergence Protocol; details: Abutilon theophrasti, pre-emergence, 312 h, evaluated after 13 days
Summary of the method: as §2

corn (Zea mays) [9] = test: Test G Pre-Emergence Protocol; details: Zea mays, pre-emergence, 312 h, evaluated after 13 days
Summary of the method: as §2

[10] = system: redroot pigweed (Amaranthus retroflexus); test: Test G Pre-Emergence Protocol; details: Amaranthus retroflexus, pre-emergence, 312 h, evaluated after 13 days
Summary of the method: as §2

[11] = system: ivy-leaved morning glory (Ipomoea hederacea); test: Test G Pre-Emergence Protocol; details: Ipomoea, pre-emergence, 312 h, evaluated after 13 days
Summary of the method: as §2

[12] = system: giant foxtail (Setaria faberi); test: Test G Pre-Emergence Protocol; details: Setaria faberi, pre-emergence, 312 h, evaluated after 13 days
Summary of the method: as §2

[13] = 15.625 g ai/ha, evaluated after 13 days (100=total damage to plant; 0=no damage to plant)
[14] = 62.5 g ai/ha, evaluated after 13 days, 100=total damage to plant, 0=no damage to plant
[15] = 250 g ai/ha, evaluated after 13 days, 100=total damage to plant, 0=no damage to plant

Compound: CN1C[C@H](c2ccc(C(F)(F)F)cc2)[C@@H](C(=O)Nc2ccc[n+]([O-])c2F)C1=O (racemic) [Compound 1815]
- pest or weed control at 15.625 g/ha [1, 13]: 0%
- pest or weed control at 62.5 g/ha [1, 14]: 0%
- pest or weed control at 250 g/ha [1, 15]: 0%
- pest or weed control at 15.625 g/ha [2, 13]: 0%
- pest or weed control at 62.5 g/ha [2, 14]: 0%
- pest or weed control at 250 g/ha [2, 15]: 0%
- plant injury at 15.625 g/ha (corn (Zea mays) [3]; [13]): 0%
- plant injury at 62.5 g/ha (corn (Zea mays) [3]; [14]): 0%
- plant injury at 250 g/ha (corn (Zea mays) [3]; [15]): 0%
- pest or weed control at 15.625 g/ha [4, 13]: 0%
- pest or weed control at 62.5 g/ha [4, 14]: 0%
- pest or weed control at 250 g/ha [4, 15]: 0%
- pest or weed control at 15.625 g/ha [5, 13]: 0%
- pest or weed control at 62.5 g/ha [5, 14]: 0%
- pest or weed control at 250 g/ha [5, 15]: 0%
- pest or weed control at 15.625 g/ha [6, 13]: 0%
- pest or weed control at 62.5 g/ha [6, 14]: 0%
- pest or weed control at 250 g/ha [6, 15]: 10%
- pest or weed control at 15.625 g/ha ([7]; 15.625 g ai/ha, read-out: Barnyardgrass damage rating (100=total damage to plant; 0=no damage to plant)): 0%
- pest or weed control at 62.5 g/ha ([7]; 62.5 g ai/ha, 100=total damage to plant, 0=no damage to plant, read-out: Barnyardgrass damage rating): 0%
- pest or weed control at 250 g/ha ([7]; 250 g ai/ha, read-out: Barnyardgrass damage rating (100=total damage to plant; 0=no damage to plant)): 0%
- pest or weed control at 15.625 g/ha ([8]; 15.625 g ai/ha, read-out: Velvetleaf damage rating (100=total damage to plant; 0=no damage to plant)): 0%
- pest or weed control at 62.5 g/ha ([8]; 62.5 g ai/ha, 100=total damage to plant, 0=no damage to plant, read-out: Velvetleaf damage rating): 0%
- pest or weed control at 250 g/ha ([8]; 250 g ai/ha, read-out: Velvetleaf damage rating (100=total damage to plant; 0=no damage to plant)): 0%
- plant injury at 15.625 g/ha (corn (Zea mays) [9]; 15.625 g ai/ha, read-out: Corn damage rating (100=total damage to plant; 0=no damage to plant)): 0%
- plant injury at 62.5 g/ha (corn (Zea mays) [9]; 62.5 g ai/ha, 100=total damage to plant, 0=no damage to plant, read-out: Corn damage rating): 0%
- plant injury at 250 g/ha (corn (Zea mays) [9]; 250 g ai/ha, read-out: Corn damage rating (100=total damage to plant; 0=no damage to plant)): 0%
- pest or weed control at 15.625 g/ha ([10]; 15.625 g ai/ha, read-out: Pigweed, Redroot damage rating (100=total damage to plant; 0=no damage to plant)): 0%
- pest or weed control at 62.5 g/ha ([10]; 62.5 g ai/ha, 100=total damage to plant, 0=no damage to plant, read-out: Pigweed, Redroot damage rating): 0%
- pest or weed control at 250 g/ha ([10]; 250 g ai/ha, read-out: Pigweed, Redroot damage rating (100=total damage to plant; 0=no damage to plant)): 0%
- pest or weed control at 15.625 g/ha ([11]; 15.625 g ai/ha, read-out: Morningglory, Ivy-leaved damage rating (100=total damage to plant; 0=no damage to plant)): 0%
- pest or weed control at 62.5 g/ha ([11]; 62.5 g ai/ha, 100=total damage to plant, 0=no damage to plant, read-out: Morningglory, Ivy-leaved damage rating): 0%
- pest or weed control at 250 g/ha ([11]; 250 g ai/ha, read-out: Morningglory, Ivy-leaved damage rating (100=total damage to plant; 0=no damage to plant)): 0%
- pest or weed control at 15.625 g/ha ([12]; 15.625 g ai/ha, read-out: Foxtail, Giant damage rating (100=total damage to plant; 0=no damage to plant)): 0%
- pest or weed control at 62.5 g/ha ([12]; 62.5 g ai/ha, 100=total damage to plant, 0=no damage to plant, read-out: Foxtail, Giant damage rating): 0%
- pest or weed control at 250 g/ha ([12]; 250 g ai/ha, read-out: Foxtail, Giant damage rating (100=total damage to plant; 0=no damage to plant)): 40%
